Reference: patent US20240158446A1, “CYCLIC COMPOUND HAVING SELECTIVE INHIBITORY ACTION ON KRAS OVER HRAS AND NRAS” (CHUGAI SEIYAKU KABUSHIKI KAISHA, priority 2021, published 2024)
Like-named read-outs stand apart in the source and are kept apart here. *1 amine or outer side, *2 acyl side, *3 side chain or, on linkers, in order; H or OH if unused. Where a SMILES comes first, the peptide text is derived from it. Bridges are numbered along the chain shown (N, C = ends). [ ]: non-standard residue; d: D form. The star is where a group is joined. hPhe(3-Cl-4-CF3) = N[C@@H](CCc1ccc(C(F)(F)F)c(Cl)c1)C(=O)O; NPrPhe(4-CF3) = CCCN[C@@H](Cc1ccc(C(F)(F)F)cc1)C(=O)O; hPhe(3,4-Cl2) = N[C@@H](CCc1ccc(Cl)c(Cl)c1)C(=O)O; X10 = C=CCN([C@@H](Cc1ccc(C)cc1)C(=O)[*:2])[*:1]; NMeGly(cPent) = CN[C@H](C(=O)O)C1CCCC1; NMeD = CN[C@@H](CC(=O)O)C(=O)O; NMeL = CN[C@@H](CC(C)C)C(=O)O; Morpholide = C1CN(*)CCO1; NMeA = CN[C@@H](C)C(=O)O; Ac5c = NC1(C(=O)O)CCCC1; Aze = O=C(O)[C@@H]1CCN1; Sar = CNCC(=O)O

What was measured:
[1] = target: GDP-bound KRAS wild-type protein (Homo sapiens, UniProt P01116); assay: Binding to KRAS by surface plasmon resonance (SPR), Single Cycle Kinetics; details: GDP-bound KRAS wild-type protein, read-out: KRAS KD
[2] = target: GDP-bound NRAS wild-type protein (Homo sapiens, UniProt P01111); assay: Binding to NRAS by surface plasmon resonance (SPR), Single Cycle Kinetics; details: for NRAS/KRAS (ratio of KD value with respect to GDP-bound NRAS wild-type protein to KD value with respect to KRAS): SPR KD ratio NRAS/KRAS, class symbols
[3] = target: GDP-bound HRAS wild-type protein (Homo sapiens, UniProt P01112); assay: Binding to HRAS by surface plasmon resonance (SPR), Single Cycle Kinetics; details: for HRAS/KRAS (ratio of KD value with respect to GDP-bound HRAS wild-type protein to KD value with respect to KRAS): SPR KD ratio HRAS/KRAS, class symbols
[4] = SPR Single Cycle Kinetics, 1:1 binding model
[5] = SPR, GDP-bound NRAS wild-type protein vs GDP-bound KRAS wild-type protein
[6] = SPR, GDP-bound HRAS wild-type protein vs GDP-bound KRAS wild-type protein

Chain of GDP-bound NRAS wild-type protein (P01111 whole entry): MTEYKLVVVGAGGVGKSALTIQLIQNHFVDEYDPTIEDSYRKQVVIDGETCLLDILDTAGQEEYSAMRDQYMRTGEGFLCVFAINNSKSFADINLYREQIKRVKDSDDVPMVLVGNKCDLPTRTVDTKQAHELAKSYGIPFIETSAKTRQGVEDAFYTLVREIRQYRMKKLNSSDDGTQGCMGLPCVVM
Chain of GDP-bound KRAS wild-type protein (P01116 whole entry): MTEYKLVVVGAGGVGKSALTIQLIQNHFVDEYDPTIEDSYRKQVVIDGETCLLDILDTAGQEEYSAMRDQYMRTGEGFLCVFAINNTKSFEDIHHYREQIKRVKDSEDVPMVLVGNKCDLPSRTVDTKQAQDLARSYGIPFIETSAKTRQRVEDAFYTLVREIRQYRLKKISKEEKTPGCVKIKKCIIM
Chain of GDP-bound HRAS wild-type protein (P01112 whole entry): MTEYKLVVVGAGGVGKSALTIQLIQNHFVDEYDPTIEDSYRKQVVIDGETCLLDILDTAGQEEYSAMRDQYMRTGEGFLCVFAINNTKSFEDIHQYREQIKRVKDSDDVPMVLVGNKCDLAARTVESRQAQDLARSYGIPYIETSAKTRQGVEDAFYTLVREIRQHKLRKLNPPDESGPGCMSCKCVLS

Kd [1, 4] | Kd ([1]; SPR, Single Cycle Kinetics) | Compound | NRAS/KRAS (ratio of KD value for NRAS to KD value for KRAS) [2, 5] | HRAS/KRAS (ratio of KD value for HRAS to KD value for KRAS) [3, 6] | further results
3.2 nM | – | CCC[C@H]1C(=O)N[C@@H]([C@@H](C)CC)C(=O)N(C)CC(=O)N(C)[C@H]2C/C=C\CCN(C2=O)[C@@H](Cc2ccc(C)cc2)C(=O)N(C)CC(=O)N[C@@H](CCc2ccc3c(C)c(C)n(C)c3c2)C(=O)N2C[C@H](OCC)C[C@H]2C(=O)NC2(CC(C)(C)C2)C(=O)N(C)[C@@H](C2CCCC2)C(=O)N(C)[C@H](C(=O)N(C)C)CC(=O)N1C [PP2895] | – | – | NRAS/KRAS (ratio of KD value with respect to GDP-bound NRAS wild-type protein to KD value with respect to KRAS) [2]: A (a compound having 10 or more and less than 20 is denoted as A); HRAS/KRAS (ratio of KD value with respect to GDP-bound HRAS wild-type protein to KD value with respect to KRAS) [3]: A (a compound having 10 or more and less than 20 is denoted as A)
– | 0.096 nM | C=CCC[C@H]1C(=O)N[C@@H]([C@@H](C)CC)C(=O)N(C)CC(=O)N(C)[C@H]2CCCCN(C2=O)[C@@H](Cc2ccc(C(F)(F)F)cc2)C(=O)N(C)CC(=O)N[C@@H](CCc2cc(F)c(C(F)(F)F)c(F)c2)C(=O)N2C[C@H](OCC)C[C@H]2C(=O)N[C@](C)(CC=C)C(=O)N(C)[C@@H](C2CCCC2)C(=O)N(C)[C@H](C(=O)N2CCOCC2)CC(=O)N1C [PP0875] | C (A compound having a KD ratio of 0.1 or more and less than 3 is denoted as C) | B (a compound having 3 or more and less than 10 is denoted as B) | –
0.47 nM | – | CCC(CC)[C@H]1C(=O)N(C)[C@H](C(=O)N(C)C)CC(=O)N(C)[C@@H](COC)C(=O)N[C@@H]([C@@H](C)CC)C(=O)N(C)CC(=O)N(C)[C@H]2C/C=C\CCN(C2=O)[C@@H](Cc2ccc(C(F)(F)F)cc2)C(=O)N(C)CC(=O)N[C@@H](CCc2ccc(C(F)(F)F)c(Cl)c2)C(=O)N2CC3(CC3)C[C@H]2C(=O)NC2(CC(C)(C)C2)C(=O)N1C [PP2965] | – | – | NRAS/KRAS (ratio of KD value with respect to GDP-bound NRAS wild-type protein to KD value with respect to KRAS) [2]: AA (a compound having 20 or more is denoted as AA); HRAS/KRAS (ratio of KD value with respect to GDP-bound HRAS wild-type protein to KD value with respect to KRAS) [3]: A (a compound having 10 or more and less than 20 is denoted as A)
0.19 nM | – | C=CCN1C(=O)CN(C)C(=O)CN(C)C(=O)[C@H]([C@@H](C)CC)NC(=O)[C@H](CC(C)C)N(C)C(=O)C[C@@H](C(=O)N2CCOCC2)N(C)C(=O)[C@H](C2CCCC2)N(C)C(=O)C2(CCCC2)NC(=O)[C@@H]2CCCN2C(=O)[C@H](CCc2ccc(C(F)(F)F)c(Cl)c2)NC(=O)CN(C)C(=O)[C@@H]1Cc1ccc(C)cc1 [PP0100] ([NMeL]I[Sar][Sar][X10][Sar][hPhe(3-Cl-4-CF3)]P[Ac5c][NMeGly(cPent)][NMeD]-Morpholide; lactam N-11) | B (a compound having 3 or more and less than 10 is denoted as B) | C (A compound having a KD ratio of 0.1 or more and less than 3 is denoted as C) | –
– | – | CC[C@H](C)[C@@H]1NC(=O)[C@H](CC2CCCC2)N(C)C(=O)C[C@@H](C(=O)N(C)C)N(C)C(=O)[C@H](C2CCCC2)N(C)C(=O)C2(CCC2)NC(=O)[C@@H]2C[C@@H](F)CN2C(=O)[C@H](CCc2cc(F)c(C(F)(F)F)c(F)c2)NC(=O)CN(C)C(=O)[C@H](Cc2ccc(C(F)(F)F)cc2)N2CC/C=C\C[C@@H](C2=O)N(C)C(=O)CN(C)C1=O [PP1502] | – | – | Kd ([1]; SPR, Single Cycle Kinetics, 1:1 binding model): 0.038 nM; NRAS/KRAS (ratio of KD value for NRAS to KD value for KRAS) ([2]; SPR, GDP-bound NRAS wild-type protein vs GDP-bound KRAS wild-type protein, KD ratio class): A (a compound having 10 or more and less than 20 is denoted as A); HRAS/KRAS (ratio of KD value for HRAS to KD value for KRAS) ([3]; SPR, GDP-bound HRAS wild-type protein vs GDP-bound KRAS wild-type protein, KD ratio class): A (a compound having 10 or more and less than 20 is denoted as A)
– | 0.048 nM | CCO[C@@H]1C[C@H]2C(=O)NC3(CCCC3)C(=O)N(C)[C@@H](C3CCCC3)C(=O)N(C)[C@H](C(=O)N(C)C)CC(=O)N(C)[C@@H](CC(C)C)C(=O)N[C@@H]([C@@H](C)CC)C(=O)N(C)CC(=O)N(C)[C@H]3C[C@@H](C)CCN(C3=O)[C@@H](Cc3ccc(C(F)(F)F)cc3)C(=O)N(C)CC(=O)N[C@@H](CCc3cc(F)c(C(F)(F)F)c(F)c3)C(=O)N2C1 [PP1017] | C (A compound having a KD ratio of 0.1 or more and less than 3 is denoted as C) | B (a compound having 3 or more and less than 10 is denoted as B) | –
– | 0.19 nM | CCCOC[C@H]1C(=O)N[C@@H]([C@@H](C)CC)C(=O)N(C)CC(=O)N(C)[C@H]2C/C=C\CCN(C2=O)[C@@H](Cc2ccc(C)cc2)C(=O)N(C)CC(=O)N[C@@H](CCc2ccc(C(F)(F)F)c(Cl)c2)C(=O)N2C[C@H](C)C[C@H]2C(=O)NC2(CC(C)(C)C2)C(=O)N(C)[C@@H](C2CCCC2)C(=O)N(C)[C@H](C(=O)N(C)C)CC(=O)N1C [PP2234] | A (a compound having 10 or more and less than 20 is denoted as A) | A (a compound having 10 or more and less than 20 is denoted as A) | –
– | 0.23 nM | CCO[C@@H]1C[C@H]2C(=O)NC3(CCC3)C(=O)N(C)[C@@H](C3CCCC3)C(=O)N(C)[C@H](C(=O)N3CCOCC3)CC(=O)N(C)[C@@H](CC(C)C)C(=O)N[C@@H]([C@@H](C)CC)C(=O)N(C)CC(=O)N(C)[C@H]3C/C=C\CCN(C3=O)[C@@H](Cc3ccc(C(F)(F)F)cc3)C(=O)N(C)CC(=O)N[C@@H](CCc3ccc(C(F)(F)F)c(Cl)c3)C(=O)N2C1 [PP0825, (2S,8S,12R,14S,20S,23S,27S,30S,36S,38Z)-8-[2-[3-chloro-4-(trifluoromethyl)phenyl]ethyl]-20-cyclopentyl-12-ethoxy-27-isobutyl-4,19,22,26,32,35-hexamethyl-30-[(1S)-1-methylpropyl]-23-(morpholine-4-carbonyl)-2-[[4-(trifluoromethyl)phenyl]methyl]spiro[1,4,7,10,16,19,22,26,29,32,35-undecazatricyclo[34.5.1.0^10,14]dotetracont-38-ene-17,1′-cyclobutane]-3,6,9,15,18,21,25,28,31,34,42-undecone] | A (a compound having 10 or more and less than 20 is denoted as A) | A (a compound having 10 or more and less than 20 is denoted as A) | –
– | 0.96 nM | CCC[C@H]1C(=O)N[C@@H]([C@@H](C)CC)C(=O)N(C)CC(=O)N(C)[C@H]2C/C=C\CCN(C2=O)[C@@H](Cc2ccc(C(F)(F)F)cc2)C(=O)N(C)CC(=O)N[C@@H](CCc2ccc(C(F)(F)F)c(Cl)c2)C(=O)N2C[C@H](OCC)C[C@H]2C(=O)NC2(CC(C)(C)C2)C(=O)N(C)[C@@H](CC(F)(F)F)C(=O)N(C)[C@H](C(=O)N(C)C)CC(=O)N1C [PP2975] | A (a compound having 10 or more and less than 20 is denoted as A) | A (a compound having 10 or more and less than 20 is denoted as A) | –
0.14 nM | – | CCO[C@@H]1C[C@H]2C(=O)NC3(CCC3)C(=O)N(C)[C@@H](C3CCCC3)C(=O)N(C)[C@H](C(=O)N(C)CC)CC(=O)N(C)[C@@H](CC3CCC3)C(=O)N[C@@H]([C@@H](C)CC)C(=O)N(C)CC(=O)N(C)[C@H]3C/C=C\CCN(C3=O)[C@@H](Cc3ccc(C(F)(F)F)cc3)C(=O)N(C)CC(=O)N[C@@H](CCc3ccc(C(F)(F)F)c(Cl)c3)C(=O)N2C1 [PP2826] | – | – | NRAS/KRAS (ratio of KD value with respect to GDP-bound NRAS wild-type protein to KD value with respect to KRAS) [2]: A (a compound having 10 or more and less than 20 is denoted as A); HRAS/KRAS (ratio of KD value with respect to GDP-bound HRAS wild-type protein to KD value with respect to KRAS) [3]: A (a compound having 10 or more and less than 20 is denoted as A)
– | 0.15 nM | CCCO[C@@H]1C[C@H]2C(=O)NC3(CC(C)(C)C3)C(=O)N(C)[C@@H](C(CC)CC)C(=O)N(C)[C@H](C(=O)N(C)C)CC(=O)N(C)[C@H]3CCCCc4ccc(cc4)C[C@@H](C(=O)N(C)CC(=O)N[C@@H](CCc4ccc(C(F)(F)F)c(OC)c4)C(=O)N2C1)N1CC/C=C\C[C@@H](C1=O)N(C)C(=O)CN(C)C(=O)[C@H]([C@@H](C)CC)NC3=O [PP3038] | A (a compound having 10 or more and less than 20 is denoted as A) | A (a compound having 10 or more and less than 20 is denoted as A) | –
0.26 nM | – | CCCN1C(=O)[C@@H]2CCN2C(=O)[C@H](C)N(C)C(=O)[C@H]([C@@H](C)CC)NC(=O)[C@H](CC(C)C)N(C)C(=O)C[C@@H](C(=O)N2CCOCC2)N(C)C(=O)[C@H](C2CCCC2)N(C)C(=O)C2(CCCC2)NC(=O)[C@@H]2CCCN2C(=O)[C@H](CCc2ccc(Cl)c(Cl)c2)NC(=O)CN(C)C(=O)[C@@H]1Cc1ccc(C(F)(F)F)cc1 [PP0227] ([NMeL]I[NMeA][Aze][NPrPhe(4-CF3)][Sar][hPhe(3,4-Cl2)]P[Ac5c][NMeGly(cPent)][NMeD]-Morpholide; lactam N-11) | C (A compound having a KD ratio of 0.1 or more and less than 3 is denoted as C) | B (a compound having 3 or more and less than 10 is denoted as B) | –
0.77 nM | – | CC[C@H](C)[C@@H]1NC(=O)[C@H](CC)N(C)C(=O)C[C@@H](C(=O)N(C)C)N(CC)C(=O)[C@H](C2CCCC2)N(C)C(=O)C2(CCC2)NC(=O)[C@@H]2C[C@@H](N3CCC(F)(F)CC3)CN2C(=O)[C@H](CCc2cc(F)c(C(F)(F)F)c(F)c2)NC(=O)CN(C)C(=O)[C@H](Cc2ccc(C(F)(F)F)cc2)N2CCCC[C@@H](C2=O)N(C)C(=O)CN(C)C1=O [PP0733] | – | – | NRAS/KRAS (ratio of KD value with respect to NRAS to KD value with respect to KRAS) [2, 5]: B (a compound having 3 or more and less than 10 is denoted as B); HRAS/KRAS (ratio of KD value with respect to HRAS to KD value with respect to KRAS) [3, 6]: B (a compound having 3 or more and less than 10 is denoted as B)
